# Test results as given in patent publication US12479803B2, “Antimalarial compounds” (UNIVERSITY OF CENTRAL FLORIDA RESEARCH FOUNDATION, INC., priority 2019, dated 2025).
# Entries after “also recorded” stand apart in the source; their conditions may differ. Read-outs that look alike come from different tables or passages of the source. Marks after values point to notes of the source that are not given here.
# Experiments:
# [1] = tested on: CQ-resistant (Dd2) strain of P. falciparum; settings: value reported from another study; cited from earlier work
# [2] = Cytotoxicity assay using MTS in human hepatocytes; type: cell-based; settings: human, HepG2 cells (human hepatocytes); Table 6B, unit inferred; footnote IC50 (HepG2); read-out: Cytotoxic activity HepG2 (converted)
# HepG2 = assay: Cytotoxicity assay using MTS in human hepatocytes; type: cell-based; settings: HepG2 versus Dd2
# [3] = tested on: late stage (IV-V) gametocytes of 3D7 expressing luciferase parasite; assay: In vitro gametocytocidal activity, late stage; type: cell-based, Plasmodium falciparum; settings: Plasmodium falciparum, 3D7
# From the text: (§1) Late stage (IV-V) gametocytes are more refractory to antimalarial drugs than early-stage gametocytes and blood stage parasites, and thus fewer compounds are effective against late stage Pf gametocytes. […] FIGS. 4A and 4B are an examples according to various embodiments illustrating results showing the activity of compound 24 on gametocyte stages, based on an evaluation of the viability of gametocytes after the exposure of compound 24 on early (A) and late (B) gametocytes stages of 3D7 expressing luciferase parasite. In FIGS. 4A and 4B, EC50 data represent the means and SEMs of three experiments. Therefore, arylvinylquinolines represented good leads as new antimalarials with promising dual stage (blood and gametocyte) activity.
# [4] = In vitro microsomal turnover assay (metabolic stability); settings: mouse; for Clint / % remaining after 60 min: microsomes; for % remaining after 60 min: 1 h
# Method: Selectivity of compounds were determined by cytoxicity assay using MTS [(3-(4,5-dimethylthiazol-2-yl)-5-(3-carboxymethoxyphenyl)-2-(4-sulfophenyl)-2H-tetrazolium) in human hepatocytes. The metabolic stability of compounds was determined in mouse liver microsomes using an NADPH-regenerating system. The aqueous solubility at pH 7.4 was determined by UV-visible absorption based method. The permeability was assessed by the in vitro double-sink parallel artificial membrane permeability assay 52 that is a model for the passive transport from the gastrointestinal tract into the blood stream.
# To assess the metabolic stability, the selected compounds were subjected to an in vitro microsomal turnover assay with mouse liver microsomal preparations. This assay determines the percentage of the parent compound residues after 60 min incubation (Table 7).
# [5] = tested on: P. falciparum 3D7 strain (CQ-sensitive); assay: In vitro antiplasmodium activity, 3D7 strain; type: cell-based, Plasmodium falciparum; settings: Plasmodium falciparum, 3D7; Table 6A, nM; footnote calls it IC50; read-out: Antiplasmodium activity 3D7 (converted)
# Method: (§2) A set of 104 new styrylquinoline derivatives were synthesized and investigated for in vitro their antimalarial activity. To test antimalarial activities, different dilutions of compounds were added to P. falciparum culture. Following 72 h incubation at 37° C. in an atmosphere containing 5% CO2, the inhibitory property of the compounds were determined by SYBR Green I fluorescence assay. Meanwhile, SARs studies were conducted.
# [6] = tested on: P. berghei ANKA strain expressing luciferase; assay: Survival of P. berghei ANKA infected mice (30 days)
# Method: In light of in vitro metabolic stability and in vivo efficacy mentioned above, compound 24 s was also administered at 100 and 25 mg/kg to malaria infected mice, and the survival rate was evaluated for 30 days. […] BALB/c females were infected with P. berghei ANKA strain expressing luciferase and treated 4 h post-infection with 25 and 100 mg/kg orally once daily for 4 days.
# [7] = tested on: asynchronous Dd2 parasite cultures; assay: Kill kinetic experiments (rate of killing, parasitocidal/parasitostatic); type: cell-based, Plasmodium falciparum; settings: 5×EC50 (Atovaquone 6.6 nM) for 6, 12, 24 and 48 h
# Method: To study whether arylvinylquinolines exerted their antiplasmodial activity through a parasitocidal or parasitostatic mechanism, kill kinetic experiments in Dd2 strain were performed. […] After washing to remove the inhibitors at these time points, the growth of the cultures was continued to be assessed for 96 h.
# FIGS. 3A, 3B, 3C, and 3D are examples according to various embodiments illustrating rate of killing and parasitocidal/parasitostatic activity determination of arylvinylquinolines. […] After each exposure, cultures were washed three times in RPMI, resuspended in culture media, and monitored for parasite growth daily for 4 days. DHA and Atovaquone (50 nM and 6.6 nM) were included as fast and slow acting controls, respectively. Parasitemia was determined by microscopy of Giemsa stained smear.
# [8] = tested on: β-hematin crystal formation; assay: β-hematin inhibition experiment; type: biochemical; settings: 100 μM hemin, 16 h at 37° C., up to 200 μM compound
# Method: CQ and other aminoquinolines are known to fight against the malaria parasites by blocking hematin biocrystallization (hemozoin formation) through π-π stacking between the aminoquinoline scaffold and the heme. As a result, the accumulated toxic heme causes the parasite death by introducing oxidative membrane damage. β-hematin inhibition experiments were performed to determine possible mode of actions of arylvinylquinolines. FIG. 5A is an example according to various embodiments illustrating images of β-hematin crystals after incubation of 100 μM hemin, propionate buffer, phosphatidylcholine and, several concentrations of compound for 16 h at 37° C. […] In FIGS. 5A and 5B, the data are mean±SEM.
# [9] = tested on: tightly synchronized Dd2 parasites; assay: Developmental stage specific action (Giemsa microscopy and flow cytometry); type: cell-based, Plasmodium falciparum; settings: 5×EC50, treated at 6, 18, 30 and 42 h post-invasion
# Method: Accurate definition of the timing of action of antimalarial agents could give valuable insights into the developmental growth and clinical clearance of the parasite. To further understand the antimalarial activity of arylvinylquinolines, the developmental stage specific action of the most promising compound 24 was determined by both microscopy and flow cytometry analysis. Tightly synchronized cultures were exposed to 5×EC50 concentration of compound 24 at 6, 18, 30 and 42 hours post-invasion (HPI) of the merozoites. Microscopic analysis of Giemsa-stained-thin smears and flow cytometric evaluation were performed at 12 h intervals.
# In FIGS. 2A and 2B, the results are representative of three independent biological replicates.
# [10] = tested on: early stage (I-III) gametocytes of 3D7 expressing luciferase parasite; assay: In vitro gametocytocidal activity, early stage; type: cell-based, Plasmodium falciparum; settings: Plasmodium falciparum
# From the text: as §1
# [11] = tested on: P. berghei ANKA strain expressing luciferase; assay: Rodent malaria model, Peters' four-day test with IVIS luminescence; type: in vivo; settings: once daily, po
# Method: Phosphate salts of 24, 29 and 88 were assessed (referred to hereinafter as 24 s, 29 s, and 88 s) in female Swiss Webster mice infected with P. berghei ANKA strain since this strain produced histopathological and immunopathological features which were particularly similar to human cerebral malaria. […] FIG. 6B is an example according to various embodiments illustrating a chart showing the luminescence detected and quantified 7 days after infection of the Swiss Webster females shown in FIG. 6A, using an in vivo imaging system (IVIS). […] As observed from FIG. 6A-B, all these compounds completely cured malaria infection in mice when exposed to 100 mg/kg daily by p.o. administration in a standard Peters' four-day test, and no parasites visible in any of the tested mice were observed. […] Actually, this signal can also arise from dying parasites.
# [12] = tested on: CQ-resistant (Dd2) strain of P. falciparum; assay: In vitro antiplasmodial activity, SYBR Green I fluorescence assay, Dd2 strain; type: cell-based, Plasmodium falciparum; settings: for RI, resistance index = [IC50 (Dd2)/IC50 (3D7)]: Dd2 versus 3D7
# Method: as §2
# The SAR studies were focused on improving the in vitro activity of 2-arylvinylquinolines against the CQ-resistant Pf Dd2 strain.
# [13] = mouse liver microsomes; value reported from an initial study; cited from earlier work
# [14] = tested on: malaria infection in mice; settings: cited from earlier work
# [15] = Plasmodium falciparum, DD2, Table 6A, unit not given (text gives nM), footnote calls it IC50, read-out: Antiplasmodium activity Dd2 (converted)
# [16] = Plasmodium falciparum, CQ-resistant (Dd2) strain, 72 h incubation, read-out: EC50 (nmol)
# [17] = Plasmodium falciparum, Dd2 strain, read-out: EC50
Compound,IC50 [2] [nM],"SI, selectivity index = [IC50 (HepG2)/IC50 (Dd2)] (HepG2)",Projected t1/2 [4] [h],Clint [4] [µL/min/mg],% remaining after 60 min [4] [%],EC50 [5] [nM],"RI, resistance index = [IC50 (Dd2)/IC50 (3D7)] [12]","EC50 [12, 15] [nM]","EC50 [12, 16] [nM]","EC50 [12, 17] [nM]",further results
C[C@@H]1CC[C@H]2[C@@H](C)C(=O)O[C@@H]3O[C@@]4(C)CC[C@@H]1[C@]32OO4 [Artemisinin],,,,,,,,,,,EC50 [1]: 28 ± 6 nM
CN(C)CCNc1cc(/C=C/c2ccc(C(F)(F)F)cc2)nc2ccc(Cl)cc12 [Compound 24],11200 ± 1860,1031,1.737,13.3,67.1,16.8 ± 0.8,0.6,10.9 ± 1.9,10.9 ± 1.9,≤ 15,"IC50 ([3]; late stage gametocytes, means and SEMs of three experiments): 394 ± 99.4 nM; EC50 ([3]; read-out: Pf Gametocyte EC50 (late stage)): 394 ± 99.4 nM; mice with 100% reduction of parasitemia ([6]; 25 mg/kg, po): 3/4; mice with 100% reduction of parasitemia ([6]; 100 mg/kg, p.o.): 5/5; tolerability / signs of toxicity ([6]; infected mice, 25 and 100 mg/kg p.o.): without apparent signs of toxicity; rate of killing (parasitemia after exposure and wash-out) [7]: remarkable reduction in parasitemias; inhibitory activity towards β-hematin formation [8]: weaker inhibitory activity; also recorded: very low activity; stage-specific inhibition of P. falciparum growth [9]: blocked at the trophozoite stage; IC50 ([10]; 3D7, read-out: Early stage IC50 (nM)): 472 ± 18.4 nM; EC50 ([10]; 3D7, read-out: Pf Gametocyte EC50 (early stage)): 472 ± 18.4 nM; in vivo efficacy (efficacious dose) [11]: 25 mg/kg; IC50 ([12]; Plasmodium falciparum, Dd2 strain): ≤ 15 nM"
"CCN(CC)CCCC(C)Nc1cc(/C=C/c2ccc([N+](=O)[O-])cc2)nc2ccc(OC)cc12 (centres unmarked) [Compound according to Formula 1, reference compound]",12920 ± 70.1,193,0.692,33.4,36.7,119 ± 3,0.6,67 ± 8,67 ± 8,67 ± 8,"SI, selectivity index = [IC50 (HepG2)/IC50 (Dd2)] (HepG2; listed as Compd. of Formula 1): 192; % remaining after 60 min [13]: 47.8^a %; Projected t1/2 (min) [13]: 56.2^a min; mice cured of malaria infection ([14]; 100 mg/kg twice daily po, previous study): 4/5; in vivo efficacy (efficacious dose) ([14]; twice daily, po): 100 mg/kg"
